Data reported in patent US9084423B2, “Inhibition of bacterial biofilms with imidazole derivatives” (North Carolina State University, priority 2007, dated 2015).
Structures can show the parent of a compound that is named as a salt.

How the values were obtained:
P. aeruginosa = test: Biofilm inhibition screen of TABLE 1, P. aeruginosa; format: cell-based, Pseudomonas aeruginosa; design: key: “X” denotes biofilm inhibition; settings: 500 μM active compound, 24 hours
Procedure: (§1) Each compound was assayed for the ability to inhibit the formation of P. aeruginosa biofilms. […] We employed a standard crystal violet reporter assay to assess for the formation of biofilms. Briefly, P. aeruginosa strain PAO1 was allowed to form biofilms in a multi-well plate in the absence or presence of our compounds. Planktonic (or free growing) bacteria were then removed, wells washed vigorously, and crystal violet added. Crystal violet stains the remaining bacteria which, following ethanol solubilization, can be quantitated by spectrophotometry (A540).
(§2) Active compounds were tested for inhibition of biofilm formation using various bacterial strains. Assays were performed as reported above, with 500 μM active compound, and 24 hours. “X” denotes biofilm inhibition.

V. Vulnificus = test: Biofilm inhibition screen of TABLE 1, V. vulnificus; format: cell-based, Vibrio vulnificus; design: key: “X” denotes biofilm inhibition; settings: 500 μM active compound, 24 hours
Procedure: as §1, §2

H. Pacifica = test: Biofilm inhibition screen of TABLE 1, H. pacifica; format: cell-based, Halomonas pacifica; design: key: “X” denotes biofilm inhibition; settings: 500 μM active compound, 24 hours
Procedure: as §1, §2

[1] = system: planktonic P. aeruginosa PA14; test: Planktonic growth (growth curves, colony counts), PA14; format: cell-based, Pseudomonas aeruginosa; settings: growth curves and/or colony counts, presence vs absence of compound, at IC50 or as stated
P. aeruginosa PA14 = test: Static biofilm inhibition assay (crystal violet), PA14; format: cell-based, Pseudomonas aeruginosa; settings: for inhibition at 500 µM: PA14, 24 h; for IC50: inhibition of biofilm formation, crystal violet, 24 hours
Procedure: (§3) An overnight culture of the bacterial strain being screened against was subcultured at an OD600 of 0.1 into the media used (listed below with strain) and then pipetted into test tubes along with a predetermined concentration of our compound of interest. Test tubes were then poured into tilted Petri dishes and 100 μL of media, strain and compound were then transferred into 96-well PVC microtiter plates. These microtiter plates were then covered, wrapped in Saran™ Wrap polyethylene film (S.C. Johnson, Racine, Wis.) and allowed to incubate at 37° C. for 24 hours. After that time, the medium was discarded and the plates were thoroughly washed with water. The remaining biofilm that was formed during incubation was stained with 100 μL of a 0.1% crystal violet solution and allowed to incubate at room temperature for 30 minutes. After 30 minutes, the crystal violet was discarded and washed thoroughly again with water. The remaining crystal violet that had stained the biofilm in the inside walls of the 96-well PVC plates was solubilized with 200 μL of 95% ethanol. The quantification of biofilm formation was accomplished by transferring 125 μL of the ethanol solution into a polystyrene microtiter dish, which was read by spectrophotometry (A540). After the background has been subtracted from each row, a percent inhibition can be calculated by dividing the amount of crystal violet in wells that contained compound by the amount of crystal violet in wells that contained bacteria only. Each concentration reported during the course of this study was repeated two to five times with each of those biofilm inhibition assays being done in 6 replicates each.
(§4) An overnight culture of the wild type strain was subcultured at an OD600 of 0.10 into LBNS along with a predetermined concentration of the small molecule to be tested for biofilm inhibition. Samples were then aliquoted (100 μL) into the wells of a 96-well PVC microtiter plate. The microtiter dishes were covered and sealed before incubation under stationary conditions at 37° C. for 24 hours. After that time, the medium was discarded and the plates thoroughly washed with water. The wells were then inoculated with a 0.1% aqueous solution of crystal violet (100 μL) and allowed to stand at ambient temperature for 30 minutes. Following another thorough washing with water the remaining stain was solubilized with 200 μL of 95% ethanol. Biofilm inhibition was quantitated by measuring the OD540 for each well by transferring 125 μL of the ethanol solution into a fresh polystyrene microtiter dish for analysis.
(§5) To examine each compound's ability to inhibit the formation of Pseudomonas aeruginosa biofilms, PAO1 and PA14 were employed as the target bacterial strains using a crystal violet reporter assay. G. A. O'Toole, R. Kolter, Mol. Microbiol. 1998, 28, 449. All compounds were initially screened at 500 μM for anti-biofilm activity.
as §4, with “for 24 hours, After that” for “for 24 hours. After that”, “violet (100 pt) and allowed” for “violet (100 μL) and allowed”

[2] = system: planktonic P. aeruginosa PAO1; test: Planktonic growth (growth curves, colony counts), PAO1; format: cell-based, Pseudomonas aeruginosa; settings: growth curves and/or colony counts, presence vs absence of compound, at IC50 or as stated
Source text: To answer the question of whether the compounds were antibiotics or true inhibitors of biofilm formation, we tested the ability of both compounds to inhibit growth of planktonic P. aeruginosa. Growth was quantitated by measuring optical density at 600 nm. […]

[3] = system: P. aeruginosa strain PAO1; test: Static biofilm inhibition assay (crystal violet), PAO1; format: cell-based, Pseudomonas aeruginosa; settings: for IC50: inhibition of biofilm formation, crystal violet, 24 hours
Procedure: as §1, §3, §4, §5
An overnight culture of the wild type strain was subcultured at an OD600 of 0.10 into LBNS along with a predetermined concentration of the small molecule to be tested for biofilm inhibition. Samples were then aliquoted (100 μL) into the wells of a 96-well PVC microtiter plate. The microtiter dishes were covered and sealed before incubation under stationary conditions at 37° C. for 24 hours, After that time, the medium was discarded and the plates thoroughly washed with water. […]

[4] = listed as oroidin 4, Hydrochloride
[5] = listed as oroidin 5, Hydrochloride
[6] = listed as oroidin (5), Hydrochloride
[7] = listed as sventrin 24, Hydrochloride
[8] = listed as sventrin (6), Hydrochloride

SMILES: NC[C@@H]1Cc2nc(N)[nH]c2C[C@@H]1CN
- P. aeruginosa biofilm inhibition (P. aeruginosa): X

SMILES: NC[C@H]1Cc2nc(N)[nH]c2C[C@@H]1CN
- V. Vulnificus biofilm inhibition (V. Vulnificus): X
- P. aeruginosa biofilm inhibition (P. aeruginosa): X
- H. Pacifica biofilm inhibition (H. Pacifica): X

SMILES: Nc1nc(Cc2c[nH]cn2)c[nH]1
- V. Vulnificus biofilm inhibition (V. Vulnificus): X
- H. Pacifica biofilm inhibition (H. Pacifica): X

SMILES: Nc1nc(Cc2c[nH]c3ccccc23)c[nH]1
- P. aeruginosa biofilm inhibition (P. aeruginosa): X
- H. Pacifica biofilm inhibition (H. Pacifica): X

SMILES: Nc1nc(/C=C/CNC(=O)c2cc(Br)c(Br)[nH]2)c[nH]1
- H. Pacifica biofilm inhibition (H. Pacifica): X

SMILES: Nc1ncc2n1CCC2
- V. Vulnificus biofilm inhibition (V. Vulnificus): X

SMILES: NC1=N/C(=C\CCNC(=O)c2cc(Br)c(Br)[nH]2)C(=O)N1
- H. Pacifica biofilm inhibition (H. Pacifica): X

SMILES: Cl.Cn1c(C(=O)NCCCCc2c[nH]c(N)n2)cc(Br)c1Br [Compound 30, 4,5-dibromo-1-methyl-pyrrole-2-carboxylic acid [4-(2-amino-1H-imidazol-4-yl)-butyl]-amide hydrochloride]
- microbicidal effect on PA14 planktonic growth (in words) [1]: no microbicidal activity
- inhibition at 500 µM (P. aeruginosa PA14; Pseudomonas aeruginosa): > 95%
- IC50 (P. aeruginosa PA14; Pseudomonas aeruginosa, PA14): 126 ± 17 µM
- microbicidal effect on PAO1 planktonic growth (in words) [2]: no microbicidal activity
- inhibition at 500 µM ([3]; Pseudomonas aeruginosa, PAO1): > 95%
- IC50 ([3]; Pseudomonas aeruginosa, PAO1): 150 ± 17 µM

SMILES: Cl.Cn1c(C(=O)NCCc2c[nH]cn2)cc(Br)c1Br [Compound 40, 4,5-dibromo-1-methyl-pyrrole-2-carboxylic acid [2-(1H-imidazol-4-yl)-ethyl]-amide hydrochloride]
- microbicidal effect on PA14 planktonic growth (in words) [1]: not inhibiting biofilm development through microbicidal activity
- inhibition at 500 µM (P. aeruginosa PA14; Pseudomonas aeruginosa): 82%
- IC50 (P. aeruginosa PA14; Pseudomonas aeruginosa, PA14): 203 ± 25 µM
- microbicidal effect on PAO1 planktonic growth (in words) [2]: not inhibiting biofilm development through microbicidal activity
- inhibition at 500 µM ([3]; Pseudomonas aeruginosa, PAO1): 73%
- IC50 ([3]; Pseudomonas aeruginosa, PAO1): 277 ± 35 µM

SMILES: Nc1nc(CCCNC(=O)c2cc(Br)c[nH]2)c[nH]1 [drawing 73]
- P. aeruginosa biofilm inhibition (P. aeruginosa): X
- H. Pacifica biofilm inhibition (H. Pacifica): X

SMILES: Nc1nc(CCCNC(=O)c2cc(Br)c(Br)[nH]2)c[nH]1 [drawing 74]
- H. Pacifica biofilm inhibition (H. Pacifica): X

SMILES: Nc1ncc(/C=C/CNC(=O)c2cc(Br)c(Br)[nH]2)[nH]1 [oroidin, Oroidin Hydrochloride, reference compound]
- microbicidal effect on PA14 planktonic growth (in words) [1, 4]: remained unchanged
- microbicidal effect on PA14 planktonic growth (in words) [1, 5]: did not induce microbial cell death
- microbicidal effect on PA14 planktonic growth (in words) [1, 6]: not due to a bactericidal effect
- inhibition at 500 µM (P. aeruginosa PA14; Pseudomonas aeruginosa): > 95%
- IC50 (P. aeruginosa PA14; Pseudomonas aeruginosa, PA14): 166 µM
- inhibition of PA14 biofilm formation (in words) (P. aeruginosa PA14; screen at 500 μM): very potent inhibitors
- microbicidal effect on PAO1 planktonic growth (in words) [2, 4]: remained unchanged
- microbicidal effect on PAO1 planktonic growth (in words) [2, 5]: did not induce microbial cell death
- microbicidal effect on PAO1 planktonic growth (in words) [2, 6]: not due to a bactericidal effect
- inhibition at 500 µM ([3]; Pseudomonas aeruginosa, PAO1): > 95%
- IC50 ([3]; Pseudomonas aeruginosa, PAO1): 190 µM
- inhibition of PAO1 biofilm formation (in words) ([3]; screen at 500 μM): very potent inhibitors

SMILES: Cn1c(C(=O)NC/C=C/c2cnc(N)[nH]2)cc(Br)c1Br [sventrin, Sventrin Hydrochloride, reference compound]
- microbicidal effect on PA14 planktonic growth (in words) [1, 7]: did not induce microbial cell death
- microbicidal effect on PA14 planktonic growth (in words) [1, 8]: not due to a bactericidal effect
- IC50 (P. aeruginosa PA14): 115 ± 3 µM
- microbicidal effect on PAO1 planktonic growth (in words) [2, 7]: did not induce microbial cell death
- microbicidal effect on PAO1 planktonic growth (in words) [2, 8]: not due to a bactericidal effect
- IC50 [3]: 75 ± 5 µM
